# Counter-ions that a name gives are not always drawn. Like-named read-outs stand apart in the source and are kept apart here.
# Experiments:
# [1] = biological target: full-length P. pyralis luciferase (Photinus pyralis, UniProt P08659, K549A/L550V/N119G/N50D/S548I); assay type: cell-based; conditions: CC_NCI screening, normalized to on-plate 0.3% DMSO controls; for Luciferase Assay % Lum: full-length luciferase counter-screen luminescence; for Luciferase Assay Z-score: full-length luciferase counter-screen
# Clone V cells [2] = assay: CellTiter Blue (CTB) cell viability counter-screen
# [3] = biological target: T1, FGF14:Nav1.6 C-tail complex (Homo sapiens, UniProt Q92915+Q9UQD0); assay: Split-luciferase complementation assay (LCA) in Clone V double stable HEK293 cells; assay type: cell-based; conditions: CC_NCI screening; for Split Luciferase Assay % Lum Set 1 / Split Luciferase Assay %Lum Set 2: LCA luminescence, normalized to on-plate 0.3% DMSO controls (n=16 per plate); for Split Luciferase Assay % Lum Set 1 / Split Luciferase Assay Z-score Set 1: biological replicate Set 1; for Split Luciferase Assay %Lum Set 2 / Split Luciferase Assay Z-score Set 2: biological replicate Set 2; for Split Luciferase Assay Z-score Set 1 / Split Luciferase Assay Z-score Set 2: LCA, normalized to on-plate 0.3% DMSO controls; for Split Luciferase Assay %Lum Avg: average of Set 1 and Set 2, normalized to 0.3% DMSO controls
# T1 construct: polymerase chain reaction (PCR) amplification of the FGF14 open reading frame (nt 1–855); C-terminal fragment of Nav1.6 (amino acids 1763–1976) fused with CD4ΔC-tail (amino acids 1–395); expressed in transfected cells
# Clone V cells [4] = conditions: human, 16 h, 30 µM
# [5] = CC_NCI screening, CTB cell viability fluorescence, normalized to on-plate 0.3% DMSO controls
# Sequence of full-length P. pyralis luciferase (P08659 whole entry N50D/N119G/S548I/K549A/L550V, looked up): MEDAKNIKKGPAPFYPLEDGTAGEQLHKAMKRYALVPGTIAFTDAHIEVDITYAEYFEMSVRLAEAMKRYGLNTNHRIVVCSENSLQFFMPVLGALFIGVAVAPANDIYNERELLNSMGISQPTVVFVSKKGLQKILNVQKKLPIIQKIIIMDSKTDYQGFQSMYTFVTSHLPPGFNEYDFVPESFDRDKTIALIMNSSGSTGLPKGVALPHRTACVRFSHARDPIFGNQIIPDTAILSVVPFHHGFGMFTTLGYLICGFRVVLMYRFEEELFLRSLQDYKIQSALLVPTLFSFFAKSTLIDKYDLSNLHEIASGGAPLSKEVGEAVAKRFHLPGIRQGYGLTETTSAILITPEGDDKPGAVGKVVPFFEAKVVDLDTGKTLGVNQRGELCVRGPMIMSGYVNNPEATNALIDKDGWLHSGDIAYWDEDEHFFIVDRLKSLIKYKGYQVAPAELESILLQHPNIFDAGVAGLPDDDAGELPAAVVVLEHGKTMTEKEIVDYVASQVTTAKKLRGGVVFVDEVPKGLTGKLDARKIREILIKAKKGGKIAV
# T1 sequence (Q92915 1-252 isoform Q92915-2): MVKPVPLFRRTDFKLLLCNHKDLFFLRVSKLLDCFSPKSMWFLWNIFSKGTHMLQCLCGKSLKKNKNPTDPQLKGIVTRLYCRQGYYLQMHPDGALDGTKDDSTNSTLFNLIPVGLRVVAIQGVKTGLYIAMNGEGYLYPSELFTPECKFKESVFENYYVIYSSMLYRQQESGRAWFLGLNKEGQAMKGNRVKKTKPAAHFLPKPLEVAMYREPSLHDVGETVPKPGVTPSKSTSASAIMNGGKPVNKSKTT
# T1 sequence (Q9UQD0 1763-1976 limits assumed): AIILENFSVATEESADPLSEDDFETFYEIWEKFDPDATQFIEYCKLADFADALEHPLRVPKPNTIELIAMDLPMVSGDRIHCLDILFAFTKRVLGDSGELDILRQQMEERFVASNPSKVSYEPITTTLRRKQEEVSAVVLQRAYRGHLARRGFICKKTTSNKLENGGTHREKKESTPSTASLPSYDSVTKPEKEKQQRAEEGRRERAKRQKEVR
Structure (SMILES),Luciferase Assay % Lum [1],Luciferase Assay Z-score [1],Toxicity Assay % Fluor (Clone V cells [2]; [5]),Split Luciferase Assay % Lum Set 1 [3],Split Luciferase Assay %Lum Set 2 [3],Split Luciferase Assay Z-score Set 1 [3],Split Luciferase Assay Z-score Set 2 [3],Split Luciferase Assay %Lum Avg [3],Toxicity Assay Z-score (Clone V cells [4]),Toxicity Assay % Fluor (Clone V cells [2])
CC1(C)CCC(c2ccc(Cl)cc2)=C(CN2CCN(c3ccc(C(=O)NS(=O)(=O)c4ccc(N[C@H](CCN5CCOCC5)CSc5ccccc5)c(S(=O)(=O)C(F)(F)F)c4)cc3)CC2)C1 [ABT-263],103.24%,0.42,92.92%,93.82%,71.78%,-0.50,-2.30,82.80%,-0.99,–
CN(C)CC[C@H](CSc1ccccc1)Nc1ccc(S(=O)(=O)NC(=O)c2ccc(N3CCN(Cc4ccccc4-c4ccc(Cl)cc4)CC3)cc2)cc1[N+](=O)[O-] [ABT-737],95.47%,-0.58,107.35%,132.95%,126.92%,2.66,2.19,129.94%,1.03,–
CNCc1ccc(-c2[nH]c3cc(F)cc4c3c2CCNC4=O)cc1 [AG014699],82.53%,-2.24,96.59%,65.55%,67.62%,-2.78,-2.63,66.59%,-0.48,–
CNC(=O)c1ccccc1Sc1ccc2c(/C=C/c3ccccn3)n[nH]c2c1 [AXITINIB],40.56%,-7.61,91.58%,107.95%,91.55%,0.64,-0.69,99.75%,-1.18,–
C[C@]12CC[C@H](O)CC1=CC[C@@H]1[C@@H]2CC[C@]2(C)C(c3cccnc3)=CC[C@@H]12 [Abiraterone],85.19%,-1.90,84.37%,115.56%,148.76%,1.26,3.97,132.16%,-2.19,–
Oc1ncnc2[nH]ncc12 [Allopurinol],96.95%,-0.39,88.22%,106.86%,95.71%,0.55,-0.35,101.29%,-1.65,–
"CC[C@@H]1C(=O)N(C)c2cnc(Nc3ccc(C(=O)NC4CCN(C)CC4)cc3OC)nc2N1C1CCCC1 [BI 2536, reference compound]",–,–,–,–,–,–,–,–,-0.11,99.22%
C#Cc1cccc(Nc2ncnc3cc(OCCOC)c(OCCOC)cc23)c1 [Erlotinib hydrochloride],82.34%,-2.26,93.40%,118.82%,73.86%,1.52,-2.13,96.34%,-0.92,–
C=CC[C@@H]1/C=C(\C)C[C@H](C)C[C@H](OC)[C@H]2O[C@@](O)(C(=O)C(=O)N3CCCC[C@H]3C(=O)O[C@H](/C(C)=C/[C@@H]3CC[C@@H](O)[C@H](OC)C3)[C@H](C)[C@@H](O)CC1=O)[C@H](C)C[C@@H]2OC [FK-506],77.49%,-2.88,113.03%,80.77%,91.55%,-1.55,-0.69,86.16%,1.82,–

# From PMC6858373 (Scientific Reports, 2019)
